Test results taken from patent publication US11091496B2, “Opioid ketal compounds and uses thereof” (priority 2013, dated 2021).
Like-named read-outs stand apart in the source and are kept apart here.

What was measured:
[1] = assay type: physicochemical; settings: 0.1 N HCl 37° C.; for % hydrocodone, % Ketal in hydrolysis mixture: hydrocodone 1,3-propanediol ketal; for % hydrocodone, % Ketal in hydrolysis mixture / Hydrocodone, 2R,5R ketal in hydrolysis mixture / Hydrocodone, 2S,5S ketal in hydrolysis mixture / Oxycodone in hydrolysis mixture / % Oxycodone, % IVD in hydrolysis mixture / % Oxycodone, % Ketal a, b in hydrolysis mixture / % Oxycodone, % Ketal A, B in hydrolysis mixture: 1 mg/ml; for Hydrocodone, 2R,5R ketal in hydrolysis mixture: hydrocodone 2R,5R-hexanediol ketal tested separately; for Hydrocodone, 2S,5S ketal in hydrolysis mixture: hydrocodone 2S,5S-hexanediol ketal tested separately; for % Oxycodone, % IVA-IVD in hydrolysis mixture: total 1 mg/ml; for Oxycodone in hydrolysis mixture: from isomer IVC tested separately; for Oxycodone in hydrolysis mixture / % Oxycodone, % IVD in hydrolysis mixture: normalized; for % Oxycodone, % IVD in hydrolysis mixture: isomer IVD tested separately; for % Oxycodone, % Ketal a, b in hydrolysis mixture: mixture of oxycodone 3,5-octanediol ketals; for % Oxycodone, % Ketal A, B in hydrolysis mixture: mixture of oxycodone cis 1,2-cyclohexanedimethanol ketals
[2] = Hydrolysis in Coca Cola, pH 4 buffer or pH 7 buffer, 3 days; assay type: physicochemical; settings: 1 mg/ml; for Hydrolysis to Oxycodone: after 3 days
[3] = Hydrolysis in fresh EDTA stabilized blood plasma at 37° C.; settings: mixture of isomers, 1.1 mg, four hour period
[4] = 5% acetic acid 100° C.; for % Oxycodone, % IVA-IVD in hydrolysis mixture: unreacted oxycodone + four isomers of Formula IV; for % Oxycodone, % IVA-IVD in hydrolysis mixture / % Oxycodone, % Va-Vd in hydrolysis mixture: 1 mg/ml; for % Oxycodone, % Va-Vd in hydrolysis mixture: unreacted oxycodone + four isomers of Formula V
[5] = Hydrolysis in Simulated Gastric Fluid (SGF) at 37° C., LC/MS; settings: SGF 37° C.; for Hydrocodone in hydrolysis mixture: from hydrocodone 2,4-pentanediol ketal isomers, 1 mg/ml; for Oxycodone, Ketal A-D in hydrolysis mixture: oxycodone 2,4-pentanediol ketal isomers + unreacted oxycodone, 2 mg/nil

## COc1ccc2c3c1O[C@H]1C4(CCC5(O)[C@@H](C2)N(C)CC[C@]315)OC(C)CC(C)O4 (some centres unmarked) [Formula IV, oxycodone 2,4-pentanediol ketal]
[1]; mixture of isomers
  time at which about 50% of the oxycodone is released: about 2.9 hours
  time by which about (almost) 90% oxycodone release occurs: ≤ 25 h
[2]; Coca Cola, pH 4 buffer, pH 7 buffer
  degree of hydrolysis after 3 days: very low degree of hydrolysis
[2]; Coca Cola, 23° C.
  Hydrolysis to Oxycodone: 5%
[2]; pH 4 Buffer, 37° C.
  Hydrolysis to Oxycodone: 4%
[2]; pH 7 Buffer, 37° C.
  Hydrolysis to Oxycodone: 0%
[3]
  ketal hydrolyzed to parent opioid in blood plasma: approximately 6%
[4]; FIG. 12
  time to about 80% hydrolysis to oxycodone: about 2 hours
[4]; FIG. 12, FIG. 13
  time to almost completely hydrolyze to oxycodone: about 10 hours

## COc1ccc2c3c1O[C@H]1C(=O)CC[C@H]4[C@@H](C2)N(C)CC[C@]314 [Hydrocodone, hydrocodone, reference compound]
[1]; 0 h
  % hydrocodone, % Ketal in hydrolysis mixture: 6.9%
  Hydrocodone, 2R,5R ketal in hydrolysis mixture: 26.1
  Hydrocodone, 2S,5S ketal in hydrolysis mixture: 18.02
[1]; 0.57 h
  % hydrocodone, % Ketal in hydrolysis mixture: 34.3%
[1]; 1.25 h
  % hydrocodone, % Ketal in hydrolysis mixture: 47.7%
  Hydrocodone, 2R,5R ketal in hydrolysis mixture: 88.6
  Hydrocodone, 2S,5S ketal in hydrolysis mixture: 64.89
[1]; 2 h
  % hydrocodone, % Ketal in hydrolysis mixture: 58.2%
  Hydrocodone, 2R,5R ketal in hydrolysis mixture: 97.3
  Hydrocodone, 2S,5S ketal in hydrolysis mixture: 89.81
[1]; 3 h
  % hydrocodone, % Ketal in hydrolysis mixture: 67.8%
  Hydrocodone, 2R,5R ketal in hydrolysis mixture: 100
  Hydrocodone, 2S,5S ketal in hydrolysis mixture: 95.71
[1]; 4 h
  % hydrocodone, % Ketal in hydrolysis mixture: 74.4%
  Hydrocodone, 2R,5R ketal in hydrolysis mixture: 100
  Hydrocodone, 2S,5S ketal in hydrolysis mixture: 98
[1]; 0.5 h
  Hydrocodone, 2R,5R ketal in hydrolysis mixture: 65.4
  Hydrocodone, 2S,5S ketal in hydrolysis mixture: 47.82
[5]; 0 h
  Hydrocodone in hydrolysis mixture: 1
[5]; 0.58 h
  Hydrocodone in hydrolysis mixture: 33.7
[5]; 1.25 h
  Hydrocodone in hydrolysis mixture: 45.9
[5]; 2 h
  Hydrocodone in hydrolysis mixture: 48.1
[5]; 3 h
  Hydrocodone in hydrolysis mixture: 55.1
[5]; 4 h
  Hydrocodone in hydrolysis mixture: 58.3

## COc1ccc2c3c1O[C@H]1C(=O)CC[C@@]4(O)[C@@H](C2)N(C)CC[C@]314 [Oxycodone, oxycodone, reference compound]
[1]; 0 h
  % Oxycodone, % IVA-IVD in hydrolysis mixture: 11.4%
  Oxycodone in hydrolysis mixture: 1.3
  % Oxycodone, % IVD in hydrolysis mixture: 0.8%
  % Oxycodone, % Ketal a, b in hydrolysis mixture: 0.3%
  % Oxycodone, % Ketal A, B in hydrolysis mixture: 27.2%
[1]; 0.583 h
  % Oxycodone, % IVA-IVD in hydrolysis mixture: 25.5%
[1]; 1.167 h
  % Oxycodone, % IVA-IVD in hydrolysis mixture: 33%
[1]; 1.75 h
  % Oxycodone, % IVA-IVD in hydrolysis mixture: 44%
[1]; 2.33 h
  % Oxycodone, % IVA-IVD in hydrolysis mixture: 47.6%
[1]; 2.92 h
  % Oxycodone, % IVA-IVD in hydrolysis mixture: 50.9%
[1]; 4 h
  % Oxycodone, % IVA-IVD in hydrolysis mixture: 56.8%
  % Oxycodone, % Ketal a, b in hydrolysis mixture: 56.1%
[1]; 6.5 h
  % Oxycodone, % IVA-IVD in hydrolysis mixture: 66%
[1]; 9.75 h
  % Oxycodone, % IVA-IVD in hydrolysis mixture: 72.6%
[1]; 13.75 h
  % Oxycodone, % IVA-IVD in hydrolysis mixture: 79.7%
[1]; 25 h
  % Oxycodone, % IVA-IVD in hydrolysis mixture: 86.4%
[1]; 0.75 h
  Oxycodone in hydrolysis mixture: 28.5
[1]; 1.5 h
  Oxycodone in hydrolysis mixture: 46
[1]; 3.33 h
  Oxycodone in hydrolysis mixture: 81.2
[1]; 6 h
  Oxycodone in hydrolysis mixture: 95.3
[1]; 8 h
  Oxycodone in hydrolysis mixture: 97.9
[1]; 0.17 h
  % Oxycodone, % IVD in hydrolysis mixture: 26.9%
[1]; 0.33 h
  % Oxycodone, % IVD in hydrolysis mixture: 55.2%
  % Oxycodone, % Ketal a, b in hydrolysis mixture: 12.1%
[1]; 1 h
  % Oxycodone, % IVD in hydrolysis mixture: 89.2%
  % Oxycodone, % Ketal a, b in hydrolysis mixture: 26.5%
[1]; 2 h
  % Oxycodone, % IVD in hydrolysis mixture: 98%
  % Oxycodone, % Ketal a, b in hydrolysis mixture: 40.7%
  % Oxycodone, % Ketal A, B in hydrolysis mixture: 37.4%
[1]; 0.56 h
  % Oxycodone, % Ketal A, B in hydrolysis mixture: 28.1%
[1]; 1.25 h
  % Oxycodone, % Ketal A, B in hydrolysis mixture: 33.8%
[1]; 4.45 h
  % Oxycodone, % Ketal A, B in hydrolysis mixture: 56.4%
[4]; 0 h
  % Oxycodone, % IVA-IVD in hydrolysis mixture: 10.3%
  % Oxycodone, % Va-Vd in hydrolysis mixture: 1%
[4]; 0.5 h
  % Oxycodone, % IVA-IVD in hydrolysis mixture: 55.8%
[4]; 1 h
  % Oxycodone, % IVA-IVD in hydrolysis mixture: 69.6%
  % Oxycodone, % Va-Vd in hydrolysis mixture: 56.5%
[4]; 2 h
  % Oxycodone, % IVA-IVD in hydrolysis mixture: 83.9%
  % Oxycodone, % Va-Vd in hydrolysis mixture: 72.8%
[4]; 4.35 h
  % Oxycodone, % IVA-IVD in hydrolysis mixture: 87.9%
[4]; 10 h
  % Oxycodone, % IVA-IVD in hydrolysis mixture: 95.2%
[4]; 0.33 h
  % Oxycodone, % Va-Vd in hydrolysis mixture: 31.8%
[4]; 0.67 h
  % Oxycodone, % Va-Vd in hydrolysis mixture: 46.4%
[4]; 4 h
  % Oxycodone, % Va-Vd in hydrolysis mixture: 85.4%
[5]; 0 h
  Oxycodone, Ketal A-D in hydrolysis mixture: 7.3
[5]; 0.58 h
  Oxycodone, Ketal A-D in hydrolysis mixture: 19.9
[5]; 1.25 h
  Oxycodone, Ketal A-D in hydrolysis mixture: 35.3
[5]; 2 h
  Oxycodone, Ketal A-D in hydrolysis mixture: 43
[5]; 3 h
  Oxycodone, Ketal A-D in hydrolysis mixture: 51
[5]; 4 h
  Oxycodone, Ketal A-D in hydrolysis mixture: 58.7
